The numbers were not newly measured in US20180344745A1, “TREATMENT OF DEVELOPMENTAL DISORDERS WITH IMIDAZOLONE DERIVATIVES” (Ovid Therapeutics Inc., priority 2017, published 2018), which cites them from elsewhere.

The conditions of the data set: smokers versus non-smokers.

For `O=C1N=C(N2CCOCC2)CN1c1ccc(Cl)cc1` [imepitoin, 1-(4-chlorophenyl)-4-morpholino-imidazolin-2-one], the elimination result is listed as “more rapidly eliminated in smokers than in non-smokers”.
